The structures appear in SMILES notation.

These results are taken from patent publication EP1151753B1, “PREVENTIVE AND THERAPEUTIC AGENTS FOR ARTERIOSCLEROSIS” (CCI CORPORATION, priority 1999, dated 2000).

Data set [1] can be described thus: Biochemical test of blood and measurement of body weight, cholesterol-loaded rabbit model. It counts as in vivo, New Zealand White (NZW) type rabbits. The following applies: cholesterol-loaded NZW rabbits. On the procedure: Now, the pharmacogenic effect of the agent of this invention for preventing and curing arteriosclerosis will be described specifically below with reference to a pharmacological test using high cholesterol-loaded rabbits and the WHHL (Watanabe heritable hyperlipidemic) rabbits forming a model of the familial high-cholesterol blood disease. The data were wholly reported by the average ± standard error (SE) and the significant differences among separate groups were determined by the Student's t-test. The risk factor, p < 0.05, was rated as forming a significance of difference.
(§1) In the test, female and male New Zealand White (NZW) type rabbits (SPF: Kitayama Labels K.K.) which were seven weeks old at the time of arrival at the laboratory were subjected to quarantine and two weeks' domestication and visually inspected as to the general condition and, after the absence of abnormality was confirmed, put to use. The body weights at the time of starting administration (at the age of nine weeks) were in the range of 1.8 - 2.2 kg in the case of male rabbits and in the range of 1.6 - 2.0 kg in the case of female rabbits. Throughout the entire duration of the test, the animals were raised as accommodated one each in hanger cages of aluminum installed on a stainless steel rack inside a clean feeding chamber set at a temperature in the range of 20 - 26°, a relative humidity in the range of 40 - 70%, a number of ventilations in the range of 10 - 20 turns/hour, and an illumination time within the range of 12 hours (7.00 - 19:00). They were fed on a commercially available radioactively sterilized solid feed (a product containing 1% of cholesterol, made by Oriental Kobo K.K. and sold under the product code of "RC4") and they were left freely drinking the tap water delivered by an automatic water supplying device.
The dosage of TMG was set at 800 mg/head/day. The TMG was solved in reagent grade ethanol. The produced solution was sprayed on the 1% cholesterol-containing feed and the wet feed was left drying in the air. A mixed feed was prepared so as to contain 800 mg of TMG per 100 g of the feed. The mixed feed was given to the rabbits every morning at a rate of 100 g/day per head for 12 weeks for the sake of attaining oral consumption of the TMG. The feed for the control group was obtained by spraying ethanol alone on a feed containing 1% cholesterol and air-drying the wet feed. It was given to the rabbits of the control group at a rate of 100 g/day per heat for 12 weeks.
A control group and a TMG-administration group were formed; the control group of a total of six heads composed of three males and three females and the TMG-administration group of a total of eight heads composed of four males and four females. These animals were apportioned to the two groups randomly and nevertheless elaborately so as to avoid confusion of the children of one brood in either group to the fullest possible extent and equalize as much as permissible the average body weights and the average total cholesterol numbers in blood serum of the two groups with the body weights and the total cholesterol numbers found at the time of completion of the domestication.
About 6 ml of blood was taken from the heart or the auricular artery of a rabbit experiencing 12 hours' fast prior to the start of the administration, within 4 and 8 weeks of undergoing administration, and on the final day of administration (12th week). The blood was centrifuged to separate blood serum and the blood serum was analyzed for the items shown in Table 1 by the use of an automatic analyzer (made by Hitachi. Ltd. And sold under the product code of "736-20"). The body weight of each rabbit was measured at the rate of once a week throughout the entire duration of the administration.

Data set [2] deals with cholesterol-loaded rabbits. Put plainly: Evaluation of morbid alteration of aorta (Sudan dyeing), cholesterol-loaded rabbit model. It counts as in vivo, New Zealand White (NZW) type rabbits. The following applies: cholesterol-loaded NZW rabbits.
Source text: as §1
The dosage of TMG was set at 800 mg/head/day. The TMG was solved in reagent grade ethanol. […]

Another data set relates to ICR mice. Description: Test for acute toxicity. It counts as in vivo. To be noted: 500 mg/kg orally, suspension in aqueous 5% gum arabic solution, visual inspection for one week. How it is done: The agent of this invention for preventing and curing arteriosclerosis was tested for acute toxicity with a view to confirming the safety. Groups each formed of three ICR mice aged 4 to 5 weeks were used for the test. The same TMG as mentioned above was suspended as the chromanol glucoside in an aqueous 5% gum arabic solution. The suspension was orally administered to the mice at a dosage of 500 mg/kg as reduced to TMG and the mice were kept under visual inspection for one week. To the control group, the aqueous 5% gum arabic solution was orally administered at a rate of 0.3 ml.

Where [3] appears, read: blood serum, TMG 800 mg/head/day in feed, 12th week of administration, average ± SE.
Setting [4] is: TMG 800 mg/head/day for 12 weeks.

In data set [1] (setting [3]), `Cc1c(C)c2c(c(C)c1O)CCC(C)(C[C@H]1O[C@H](CO)[C@@H](O)[C@H](O)[C@H]1O)O2` (stereo partly drawn) [TMG, 2-(α-D-glucopyranosyl)methyl-2,5,7,8-tetramethyl chroman-6-ol] gave an ALB of 2.3 ± 0.1 g/dL, an ALP of 174 ± 15 mU/ml, a ChE of 0.35 ± 0.06 U/ml and a GOT of 19.7±2.2 mU/ml. In data set [1] (setting [3]), this molecule showed a GPT of 72.9 ± 9.1 mU/ml, an LDH of 147 ± 31 mU/ml, a PL of 851 ± 42 mg/dL and a T-CHO of 2628 ± 148 mg/dL. Moreover, in data set [1] (setting [3]), the TG was 250 ± 76 mg/dL. Further, in data set [1] (setting [4]), the “activity of lowering the blood serum lipids (T-CHO, TG, PL, LDL-CHO)” value is “no activity” and the “biochemical test of blood” value is “no sign of abnormality”. The molecule further showed a Body weight in data set [1] (TMG 800 mg/head/day in feed, 12th week of administration, average ± SE) of 2.89 ± 0.11 kg. Moreover, in data set [1] (TMG 800 mg/head/day, versus control group), the “rise of the GOT, an index of the development of hepatopathy” value is on record as “significantly repressing the injury”. Further, the “Surface involvement (%)” value in data set [2] (area occupied by deposited lipid in whole area of aorta, TMG 800 mg/head/day in feed, 12th week, control 79.7 ± 3.2, p < 0.01) was determined as 50.2 ± 5.7 %. Moreover, in data set [2] (setting [4]), the “occurrence of the atherosclerosis” value is “significantly repressing”. The fatality entry in the data set with ICR mice is on record as “None of the mice”.
